# Experimental data published in publication PMC11264232, “Are the metal identity and stoichiometry of metal complexes important for colchicine site binding and inhibition of tubulin polymerization?” (Dalton Transactions (Cambridge, England : 2003), 2024).
# How the values were obtained:
# HS 578T = assay: NCI-60 five-dose screen; assay type: cell-based, human; details: Breast cancer
# Protocol: (§3) The NCI-60 SRB assay was performed as described previously.[76] GI50 values (the concentration of the metal complex causing 50% growth inhibition), TGI value (the concentration of the complex causing 0% cell growth), and LC50 (the concentration of the complex causing 50% cell death) were interpolated from dose–response curves that were plots of percentage cell growth versus concentration of test compounds.
# [1] = tested on: microtubule system in A549 cancer cells; assay: α-Tubulin immunostaining; assay type: cell-based, human; details: 80 μM, 24 h
# Protocol: Since we found remarkable antiproliferative activity exerted by some of the tested compounds by the BrdU assay, and it was also shown that some of the compounds might interfere with tubulin polymerization in cell-free tests, we examined whether the metal complexes or the proligands influence the structure of the microtubule system in A549 cancer cells. For this purpose, the cells were treated with either DMSO, HL^1–HL^3, or with complexes 1, 2, 4 and 5, or were left untreated, followed by α-tubulin immunostaining (Fig. 11). In the untreated samples normal cell morphology and filamentous microtubule structure was observed.
# The structure of microtubules was visualized by α-tubulin immunostaining on A549 cells. For this, 5 × 10^4 cells per well were seeded onto coverslips in 24-well plates. […] Then samples were fixed with 4% formaldehyde (Molar Chemicals, Halásztelek, Hungary), permeabilized with 0.3% Triton-X-100 (Calbiochem, Merck Millipore, Darmstadt, Germany) and were blocked using 5% BSA (Sigma-Aldrich, St Louis, Missouri, USA) diluted in PBS. Then the cells were incubated with anti-α-tubulin antibody (Thermo Fisher Scientific, monoclonal mouse antibody, DM1A, Waltham, Massachusetts, USA) in a 1 : 300 dilution in 1% BSA followed by Alexa 488 fluorophore-conjugated goat anti-mouse secondary antibody (Abcam, Cambridge, UK) in a 1 : 600 dilution in 1% BSA. […]
# SF-539 = assay: NCI-60 five-dose screen; assay type: cell-based, human; details: CNS cancer
# Text: (§4) GI50 values (the concentration of the metal complex causing 50% growth inhibition), TGI value (the concentration of the complex causing 0% cell growth), and LC50 (the concentration of the complex causing 50% cell death) were interpolated from dose–response curves that were plots of percentage cell growth versus concentration of test compounds.
# LOX IMVI = details: Melanoma
# Text: (§1) The proligands HL^1–HL^3 and their corresponding metal complexes 1–8 prepared in this study were subjected to evaluation of their anticancer potential, including selectivity towards specific types of cancer: leukemia, non-small cell lung (NSCLC), colon, central nervous system (CNS), melanoma, ovarian, renal, prostate and breast cancers, by the National Cancer Institute's Developmental Therapeutics Program. This evaluation involved the utilization of the NCI 60 human tumor cell line panel.[57] […] The GI50 data in μM are collected in Table 5.
# (§2) The NCI-60 SRB assay was performed as described previously.[76]
# UACC-257 = details: Melanoma
# Text: as §1, §2
# MDA-MB-435 = details: Melanoma
# Text: as §1, §2
# M14 = details: Melanoma
# Text: as §1, §2
# SK-MEL-5 = details: Melanoma
# Text: as §1, §2
# UACC-62 = details: Melanoma
# Text: as §1, §2
# MALME-3M = details: Melanoma
# Text: as §1, §2
# SK-MEL-2 = details: Melanoma
# Text: as §1, §2
# SK-MEL-28 = details: Melanoma
# Text: as §1, §2
# T-47D = assay: NCI-60 five-dose screen; assay type: cell-based, human; details: Breast cancer
# Protocol: as §3
# MCF7 = assay: NCI-60 five-dose screen; assay type: cell-based, human; details: Breast cancer
# Text: as §4
# [2] = tested on: tubulin (colchicine site); assay: Inhibition of [3H]colchicine binding to tubulin; details: tubulin 0.5 μM, [3H]colchicine 5 μM
# Text: The methods used for determination of the IC50 values for tubulin assembly and inhibition of [^3H]colchicine binding were as described previously.[77]
# BT-549 = assay: NCI-60 five-dose screen; assay type: cell-based, human; details: Breast cancer
# Protocol: as §3
# HOP-62 = assay: NCI-60 five-dose screen; assay type: cell-based, human; details: Non-Small Cell Lung Cancer
# Protocol: as §3
# HL-60(TB) = assay: NCI-60 five-dose screen; assay type: cell-based, human; details: Leukemia
# HOP-92 = assay: NCI-60 five-dose screen; assay type: cell-based, human; details: Non-Small Cell Lung Cancer
# Protocol: as §3
# [3] = tested on: NCI 60 human tumor cell line panel; assay: NCI-60 five-dose screen, average across panel; assay type: cell-based; details: five-dose 0.01–100 μM
# Protocol: as §3
# COLO 205 = assay: NCI-60 five-dose screen; assay type: cell-based, human; details: Colon cancer
# Protocol: as §3
# HCT-116 = assay: NCI-60 five-dose screen; assay type: cell-based, human; details: Colon cancer
# Protocol: as §3
# EKVX = assay: NCI-60 five-dose screen; assay type: cell-based, human; details: Non-Small Cell Lung Cancer
# Protocol: as §3
# [4] = Reduction by glutathione (GSH), UV–vis; assay type: physicochemical; details: pH 7.4, glove box
# Text: The reduction of complexes 1, 2, 4 and 5 by glutathione (GSH), one of the major cellular reductants, was investigated at pH 7.4 by recording UV–vis spectra in a glove box.
# MOLT-4 = assay: NCI-60 five-dose screen; assay type: cell-based, human; details: Leukemia
# Protocol: as §3
# RXF 393 = assay: NCI-60 five-dose screen; assay type: cell-based, human; details: Renal cancer
# Protocol: as §3
# 786-0 = assay: NCI-60 five-dose screen; assay type: cell-based, human; details: Renal cancer
# Protocol: as §3
# NCI-H23 = assay: NCI-60 five-dose screen; assay type: cell-based, human; details: Non-Small Cell Lung Cancer
# Protocol: as §3
# SK-OV-3 = assay: NCI-60 five-dose screen; assay type: cell-based, human; details: Ovarian cancer
# Protocol: as §3
# CAKI-1 = assay: NCI-60 five-dose screen; assay type: cell-based, human; details: Renal cancer
# Protocol: as §3
# [5] = tested on: MRC-5 human lung fibroblast cells; assay: MTT viability assay, 24 h; details: read-out: IC50 values MRC-5; MRC-5 fibroblasts, 24 h, MTT assay
# Protocol: We wanted to compare the cytotoxicity of proligands HL^1–HL^3 and of their Co(III) and Fe(III) complexes 1, 2 and 4, 5 on cell lines originating from the same tissue, so human lung carcinoma A549 cells and lung fibroblast MRC-5 cells were subjected to 24 h treatments.
# The biological effects of selected metal complexes (1, 2, 4 and 5) and of their proligands (HL^1, HL^2 and HL^3) were tested more extensively on A549 human lung adenocarcinoma cells and on MRC-5 human lung fibroblast cells. Both cell lines were obtained from ATCC and maintained in DMEM cell culture media containing 1.0 g L^−1 glucose (Biosera, Nuaille, France) complemented with 10% fetal bovine serum (FBS), 2 mM L-glutamine, 0.01% streptomycin and 0.005% penicillin and were cultured under standard conditions in a 37 °C incubator at 5% CO2 and 95% humidity. The viability of A549 and of MRC-5 fibroblast cells upon exposure to the selected metal–ligand complexes and ligands were evaluated by the MTT assay. For this, 10 000 cells per well were seeded into 96-well plates and left to grow. On the next day the cells were exposed to 0, 5, 10, 20, 40 or 80 μM of each compound or to an equivalent volume of DMSO for 24 h. After the treatments, cells were washed with PBS and then were incubated with 0.5 mg mL^−1 MTT reagent (Sigma-Aldrich, St Louis, Missouri, USA) for 1 h at 37 °C. Finally, 100 μL of DMSO (Molar Chemicals, Halásztelek, Hungary) was added to each well, and the absorbance of samples was measured at 570 nm using a Synergy HTX plate reader (BioTek, Winooski, Vermont, USA). The viability measurements were repeated three times using 3 independent biological replicates.
# A549/ATCC = assay: NCI-60 five-dose screen; assay type: cell-based, human; details: Non-Small Cell Lung Cancer
# Protocol: as §3
# NCI-H322M = assay: NCI-60 five-dose screen; assay type: cell-based, human; details: Non-Small Cell Lung Cancer
# Protocol: as §3
# OVCAR-3 = assay: NCI-60 five-dose screen; assay type: cell-based, human; details: Ovarian cancer
# Protocol: as §3
# SNB-75 = assay: NCI-60 five-dose screen; assay type: cell-based, human; details: CNS cancer
# Protocol: as §3
# OVCAR-5 = assay: NCI-60 five-dose screen; assay type: cell-based, human; details: Ovarian cancer
# Protocol: as §3
compound,measurement,setting,value
"CC(=NN=C([S-])Nc1cc(C)c(O)c(C)c1)c1cccc(CN2CCOCC2)n1.CC(=NN=C([S-])Nc1cc(C)c(O)c(C)c1)c1cccc(CN2CCOCC2)n1.O=[N+]([O-])[O-].[Fe+3] [Complex 4, [Fe^III(L^2)2]NO3]",GI50,HS 578T,1.96 µM
same,effect on microtubule structure and cell morphology,[1],even greater disruption
same,GI50,SF-539,1.96 µM
same,GI50,LOX IMVI,2.34 µM
same,GI50,UACC-257,4.34 µM
same,GI50,MDA-MB-435,2.31 µM
same,GI50,M14,2.37 µM
same,GI50,SK-MEL-5,1.1 µM
same,GI50,UACC-62,1.86 µM
same,GI50,MALME-3M,1.93 µM
same,GI50,SK-MEL-2,1.67 µM
same,GI50,SK-MEL-28,2.38 µM
same,GI50,T-47D,1.9 µM
same,GI50,MCF7,1.95 µM
same,"Inhibition of colchicine binding, % inhibition ± SD",[2]; 5 μM inhibitor,3.4 ± 5%
same,"Inhibition of colchicine binding, % inhibition ± SD",[2]; 25 μM inhibitor,17 ± 4%
same,GI50,BT-549,2.19 µM
same,GI50,HOP-62,2.97 µM
same,GI50,HL-60(TB),1.41 µM
same,GI50,HOP-92,2.54 µM
same,average TGI across all cell lines in the panel,[3],18.4 µM
same,GI50,[3]; read-out: average GI50 across all cell lines in the panel,2.92 µM
same,LC50,[3]; read-out: average LC50 across all cell lines in the panel,51.2 µM
same,GI50,COLO 205,1.53 µM
same,GI50,HCT-116,2.3 µM
same,GI50,EKVX,2.25 µM
same,reduction by glutathione (GSH),[4],reduction by GSH
same,GI50,MOLT-4,2.72 µM
same,GI50,RXF 393,1.95 µM
same,GI50,786-0,9.56 µM
same,GI50,NCI-H23,2.23 µM
same,GI50,SK-OV-3,2.7 µM
same,GI50,CAKI-1,3.74 µM
same,IC50,[5],> 80 µM
same,GI50,A549/ATCC,2.44 µM
same,GI50,NCI-H322M,3.26 µM
same,GI50,OVCAR-3,1.99 µM
same,GI50,SNB-75,1.58 µM
same,GI50,OVCAR-5,2.74 µM
